Results: patent US20150011566A1, “N-PHENYLPIPERAZINE DERIVATIVES THAT ARE ANTAGONISTS OF A1A, A1D ADRENOCEPTORS AND 5-HT1A RECEPTORS FOR THE TREATMENT OF BENIGN PROSTATE HYPERPLASIA, PHARMACEUTICAL COMPOSITIONS CONTAINING THE SAME” (UNIVERSIDADE FEDERAL DO RIO DE JANEIRO-UFRJ, priority 2012, published 2015)
Read-outs that look alike come from different tables or passages of the source.

Biological target: T1, α1A adrenoceptors (Oryctolagus cuniculus, UniProt O02824)
T1 construct: from tissue; host or cells: rabbit liver membranes
T1 sequence (O02824 1-466): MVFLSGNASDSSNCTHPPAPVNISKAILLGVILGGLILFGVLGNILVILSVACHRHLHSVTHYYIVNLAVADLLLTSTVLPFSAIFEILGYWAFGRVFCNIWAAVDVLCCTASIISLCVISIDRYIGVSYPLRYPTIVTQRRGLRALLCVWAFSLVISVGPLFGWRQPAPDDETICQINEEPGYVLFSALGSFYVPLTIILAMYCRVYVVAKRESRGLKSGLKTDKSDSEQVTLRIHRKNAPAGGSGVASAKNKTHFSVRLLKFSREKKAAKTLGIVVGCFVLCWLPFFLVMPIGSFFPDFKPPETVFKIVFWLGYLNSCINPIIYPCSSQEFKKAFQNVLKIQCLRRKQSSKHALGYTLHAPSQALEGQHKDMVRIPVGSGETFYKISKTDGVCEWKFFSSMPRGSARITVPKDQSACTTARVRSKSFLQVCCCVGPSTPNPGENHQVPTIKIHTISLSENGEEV
Experiment: Binding of [3H]-prazosin to α1A adrenoceptors (rabbit liver membranes)
Protocol: Following the protocol described previously in the literature, membrane preparations from rabbit liver homogenates were obtained. Such membrane preparations are enriched in adrenoceptor subtype α1A. The tissue obtained as described above (˜30 g) was naturally thawed, immersed in thawing solution (0.25 M sucrose, 1 mM EGTA and 5 mM Tris (pH 7.4)) freezing. Then, the tissue was transferred to a petri dish on ice containing solution for homogenizing liver (2 mM EDTA, 100 mM NaCl and 50 mM Tris (pH 7.4)) freezing. The liver was then carefully cut by ignoring the most fibrous part.
Then, the material was transferred into a beaker where with the aid of Ultra-Turrax homogenizer (speed 24,000 RPM), the tissue was homogenized with the same buffer solution at a ratio of 6 parts of the solution to 1 part material. The material was homogenized three times for 20 seconds; in the intervals the solution was allowed to stand for 1 minute on ice. Subsequently, the homogenate was subjected to centrifugation 10,000×g for 10 minutes at 4° C., yielding a supernatant which was subjected to ultracentrifugation 80,000×g for 40 minutes at 4° C. yielding a pellet. This pellet was resuspended in buffer solution without NaCl (1 mM EDTA and 50 mM Tris (pH 7.4)) and further subjected to ultracentrifugation in the same previous conditions. The pellet obtained was resuspended in this step storage solution (0.25 M sucrose, 1 mM EGTA and 5 mM Tris (pH 7.4)) with the aid of a manual type Dounce homogenizer and stored in aliquots at 300 μL liquid nitrogen. In all protocols for membrane preparations the dosage of protein were performed according to the method of LOWRY et al. (J. Biol. Chem. 193 (1):265-275, 1951).
The standardization of the assay was done as described in the literature. […] Assays were performed in triplicate.
In both assays, membrane preparations were incubated at 0° C. for 45 minutes. After the incubation period, the reaction was stopped by adding 4 mL of ice-cold wash buffer (50 mM Tris-HCl, pH 7.4) followed by rapid vacuum filtration on glass fiber filter (GMF 3 Filtrak®). The filters were washed four times with 4 ml of the same solution under vacuum to remove all free radioligand. Then the filters were dried and placed in vials containing 5 ml scintillation fluid (4% PPO, 0.1% POPOP w/v in toluene). The radioactivity retained on the filters was then determined in a liquid scintillation counter (Packard Tri-Carb 1600 TR).
This procedure aims to obtain a saturation curve with less expenditure of radioactive substances and biological materials. Since competition assays allow us to construct inhibition curves of specific binding of radioligand. The higher the concentration of competitor agent employed in this case the LDT's study, the greater the competition for specific receptors, decreasing the formation radioligand-receptor complex. This can be seen by the gradual decrease of radioactivity retained on the filters is detected by the counter liquid scintillation.
These values were converted to Ki values (competitive dissociation constant at equilibrium or inhibition constant) using the Cheng-Prusoff equation (Eq. 2).

[1] = Table 5, Cheng-Prusoff, read-out: α1A Ki

## COc1ccccc1N1CCN(CCc2ccccc2)CC1 [LDT 2]
  IC50: 1.91e-08 M
  Ki: 1.57e-08 M

## COc1ccc(CCN2CCN(c3ccccc3OC)CC2)cc1 [LDT 4]
  IC50: 1.07e-08 M
  Ki: 8.81e-09 M

## CCCCCCN1CCN(c2ccccc2OC)CC1 [LDT 66]
Table 5
  α1A log IC50 (M): −7.29 ± 0.11 a M
[1]
  Ki: 4.3e-08 M

## COc1ccc(CCN2CCN(c3ccccc3OC)CC2)cc1OC [LDT 5]
  IC50: 4.47e-09 M
  Ki: 3.67e-09 M

## CCCCCCCCN1CCN(c2ccccc2OC)CC1 [LDT 68]
Table 5
  α1A log IC50 (M): −7.35 ± 0.2 a M
[1]
  Ki: 3.8e-08 M

## CCCCCN1CCN(c2ccccc2OC)CC1 [LDT 65]
  IC50: 7.94e-08 M
  Ki: 6.7e-08 M

## CCCCN1CCN(c2ccccc2OC)CC1 [LDT 64]
Table 5
  α1A log IC50 (M): −6.84 ± 0.04 M
[1]
  Ki: 1.24e-07 M

## CCN1CCN(c2ccccc2)CC1 [LDT 39]
Table 5
  α1A log IC50 (M): −6.36 ± 0.21 M
[1]
  Ki: 3.74e-07 M

## CCCCCCCN1CCN(c2ccccc2OC)CC1 [LDT 67]
Table 5
  α1A log IC50 (M): −7.02 ± 0.12 a M
[1]
  Ki: 8.1e-08 M

## CCN1CCN(c2ccccc2OC)CC1 [LDT 62]
Table 5
  α1A log IC50 (M): −6.51 ± 0.2 M
[1]
  Ki: 2.61e-07 M

## CCOc1ccccc1N1CCN(CCc2ccc3c(c2)OCO3)CC1 [LDT 8]
  IC50: 4.57e-09 M
  Ki: 3.76e-09 M

## CCN1CCN(c2ccccc2O)CC1 [LDT 70]
Table 5
  α1A log IC50 (M): −6.45 ± 0.07 M
[1]
  Ki: 3.04e-07 M

## CCOc1ccccc1N1CCN(CC)CC1 [LDT 69]
Table 5
  α1A log IC50 (M): −7.41 ± 0.25 a M
[1]
  Ki: 3.3e-08 M

## COc1ccccc1N1CCN(CCC2CCCCC2)CC1 [LDT 6]
Table 3, Cheng-Prusoff, read-out: Ki (M) High Affinity site
  Ki: 2.16e-09 M
read-out: log CI50 ± EPM (M) High Affinity site (converted)
  IC50: 2.63e-09 M

## COc1cccc(CCN2CCN(c3ccccc3OC)CC2)c1 [LDT 3]
  IC50: 5.62e-09 M
  Ki: 4.63e-09 M

## CCCN1CCN(c2ccccc2OC)CC1 [LDT 63]
Table 5
  α1A log IC50 (M): −6.50 ± 0.08 M
[1]
  Ki: 2.7e-07 M
